Assay results taken from US20180332850A1, “METHOD FOR IMPROVING EARLINESS IN COTTON” (Robert Bosch GmbH, priority 2015, published 2018).

Tested on: Cotton (Gossypium hirsutum) of the variety DP 1050 B2BRF
Assay: Field trial: percentage of open bolls in cotton after in-furrow application (earliness)
Assay type: in vivo
Details: application rate 841 g/ha, in furrow by spreading, visual inspection
From the text: Cotton (Gossypium hirsutum) of the variety DP 1050 B2BRF was planted in a field trial in Brooks, Ga., United States in May 2013. Temik (comprising the active ingredient Aldicarb ([2-methyl-2-(methylthio) propionaldehyde O-(methylcarbamoyl)oxime]) and Fluopyram in combination with Imidacloprid (Velum® Total, Bayer CropScience) were applied in furrow at the same day. Temik was used for controlling insects in cotton and was provided as a Granule Release formulation with 15% (w/w) active ingredient and was applied at a rate of 841 g of active ingredient/ha by spreading. Fluopyram in combination with Imidacloprid (Velum® Total) was used as a Soluble Concentrate (SC) formulation with a concentration of 440 g/l active ingredient in total, thereof 180 g/l Fluopyram and 260 g/l Imidacloprid and these combinations were applied separately at three different rates of 321.5 g of total active ingredient/ha, 450 g of total active ingredient/ha, and 578.7 g of total active ingredient/ha by spraying. The percentage of open bolls was assessed by visual inspection at three times after application.

## CNC(=O)ON=CC(C)(C)SC [Aldicarb, 2-methyl-2-(methylthio) propionaldehyde O-(methylcarbamoyl)oxime]
97 days after application, BBCH 76
  percentage of open bolls, 97 Days after Application BBCH 76: 12.5%
104 days after application, BBCH 77
  percentage of open bolls, 104 Days after Application BBCH 77: 17.5%
111 days after application, BBCH 78
  percentage of open bolls, 111 Days after Application BBCH 78: 30.0%
